Assay results published in US20230271959A1, “HETEROCYCLIC COMPOUND AS BCL-2 INHIBITOR” (Beijing Innocare Pharma Tech Co., Ltd., priority 2020, published 2023).

Experiments:
[1] = target: T1, human recombinant Bcl-2 protein (Homo sapiens, UniProt P10415); assay: Fluorescence polarization test for inhibition of BCL-2 binding to FITC-BIM; details: 5 nM BCL-2, 5 nM FITC-BIM, read-out: FP BCL-2 IC50
T1 construct: purchased Beijing Yigiao Shenzhou Biotechnology Co., Ltd. 10195-HOSE
Outline: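 FP competition: compound preincubated 15 min with recombinant human Bcl-2 (diluted to 5 nM), then FITC-BIM (diluted to 5 nM) added for 30 min at room temperature in PBS pH 7.4 with 1 mM DTT. Polarization read at 480/535 nm; IC50 from 8-point 4-fold series fitted by four-parameter equation.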

[2] = system: RS4;11 cells (acute lymphoblastic leukemia cells); assay: RS4;11 cell proliferation, CellTilter-Glo luminescence cell viability assay; type: cell-based; details: Homo sapiens, RS4-11; CTG readout after 48 hours
Outline: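 RS4;11 cells plated overnight were exposed for 48 h at 37 °C, 5% CO2 to an 8-point, 4-fold compound dilution series; the vehicle control contained 0.2% DMSO. Viability was read by CellTiter-Glo luminescence. Percent inhibition was referenced to no-cell and DMSO controls, and IC50 came from a four-parameter sigmoidal fit.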

[3] = target: T2, human recombinant Bcl-XL protein (Homo sapiens, UniProt Q07817); assay: Fluorescence polarization test for inhibition of BCL-XL binding to FITC-BIM; details: 10 nM BCL-XL, 10 nM FITC-BIM, read-out: FP BCL-XL IC50
T2 construct: purchased Beijing Yiqiao Shenzhou Biotechnology Co., Ltd. 10455-H0SE
T2 sequence (Q07817 whole entry): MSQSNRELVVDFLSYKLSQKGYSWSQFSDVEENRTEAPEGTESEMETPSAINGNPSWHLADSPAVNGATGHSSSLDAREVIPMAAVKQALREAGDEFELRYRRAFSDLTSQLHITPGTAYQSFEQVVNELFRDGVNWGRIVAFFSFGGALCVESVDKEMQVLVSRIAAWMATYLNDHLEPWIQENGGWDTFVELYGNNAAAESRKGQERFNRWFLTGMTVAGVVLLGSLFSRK
Outline: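 Human recombinant Bcl-XL (10 nM diluted stock) preincubated with compound 15 min at RT in PBS pH 7.4, 1 mM DTT, then FITC-BIM peptide (10 nM diluted stock) added for 30 min in dark. FP read at ex 480/em 535 nm; no-protein wells = 100% inhibition; IC50 from 8-point 4-fold dilution curve fit.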

[4] = system: patients with relapsed or refractory lymphoid malignancies; details: cited from earlier work
[5] = system: chronic lymphocytic leukemia (CLL) patients; details: clinical; cited from earlier work
[6] = system: relapsed/refractory CLL, MCL, MM; details: clinical; cited from earlier work

T1 sequence (P10415 whole entry): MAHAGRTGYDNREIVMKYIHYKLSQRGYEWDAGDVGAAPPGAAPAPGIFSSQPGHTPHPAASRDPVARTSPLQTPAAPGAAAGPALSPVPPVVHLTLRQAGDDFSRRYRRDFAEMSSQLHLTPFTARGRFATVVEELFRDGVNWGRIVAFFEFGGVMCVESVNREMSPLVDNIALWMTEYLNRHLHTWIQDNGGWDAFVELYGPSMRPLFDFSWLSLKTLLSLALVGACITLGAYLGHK

Compound | IC50 [1] [nM] | IC50 [2] [nM] | IC50 [3] [nM] | further results
C[C@H]1CN(c2ccc(C(=O)NS(=O)(=O)c3cc(F)c(NC[C@@H]4COCCO4)c([N+](=O)[O-])c3)c(Oc3cnc4[nH]ccc4c3)c2)CCN1CC1=C(c2ccc(Cl)cc2)CC(C)(C)CC1 [Example 56, N-((4-((((R)-1,4-dioxan-2-yl)methyl)amino)-3-fluoro-5-nitrophenyl)sulfonyl)-2-((1H-pyrrolo[2,3-b]pyridin-5-yl)oxy)-4-((S)-4-((4′-chloro-5,5-dimethyl-3,4,5,6-tetrahydro-[1,1′-biphenyl]-2-yl)methyl)-3-methylpiperazin-1-yl) benzamide] | 82 | 224 | > 1000 | –
CC1(C)CCC(CN2CCN(c3ccc(C(=O)NS(=O)(=O)c4ccc(NCC5CCOCC5)c([N+](=O)[O-])c4)c(Oc4cnc5[nH]ccc5c4)c3)[C@@H]3CCCC[C@H]32)=C(c2ccc(Cl)cc2)C1 [Example 57] | > 500 | > 1000 | > 1000 | –
C[C@@H]1CN(c2ccc(C(=O)NS(=O)(=O)c3ccc(NCC4CCOCC4)c([N+](=O)[O-])c3)c(Oc3cnc4[nH]ccc4c3)c2)[C@H](C)CN1CC1=C(c2ccc(Cl)cc2)CC(C)(C)CC1 [Example 58, 2-((1H-Pyrrolo[2,3-b]pyridin-5-yl)oxy)-4-((2R,5R)-4-((4′-chloro-5,5-dimethyl-3,4,5,6-tetrahydro-[1,1′-biphenyl]-2-yl)methyl)-2,5-dimethylpiperazin-1-yl)-N-((3-nitro-4-(((tetrahydro-2H-pyran-4-yl)methyl)amino)phenyl)sulfonyl)benzamide] | 29.9 | 142 | > 1000 | –
C[C@@H]1CN(c2ccc(C(=O)NS(=O)(=O)c3ccc(NC[C@H]4COCCO4)c([N+](=O)[O-])c3)c(Oc3cnc4[nH]ccc4c3)c2)C[C@@H](C)N1CC1=C(c2ccc(Cl)cc2)CC(C)(C)CC1 [Example 59, N-((4-((((S)-1,4-Dioxan-2-yl)menthyl)amino)-3-nitrophenyl)sulfonyl)-2-((1H-pyrrolo[2,3-b]pyridin-5-yl)oxy)-4-((3R,5R)-4-((4′-chloro-5,5-dimethyl-3,4,5,6-tetrahydro-[1,1′-biphenyl]-2-yl)methyl)-3,5-dimethylpiperazin-1-yl)benzamide] | 73.2 | 193 | > 1000 | –
CC1(C)CCC(c2ccc(Cl)cc2)=C(CN2CCN(c3ccc(C(=O)NS(=O)(=O)c4ccc(N[C@H](CCN5CCOCC5)CSc5ccccc5)c(S(=O)(=O)C(F)(F)F)c4)cc3)CC2)C1 [Navitoclax] | – | – | – | response ([4]; Phase I dose escalation): 50%; targeted toxicity ([4]; thrombocytopenia and severe anemia): very strong targeted toxicity related to BCL-XL
COC1=CC(c2cc3ccccc3[nH]2)=N/C1=C\c1[nH]c(C)cc1C [Obatoclax] | – | – | – | neurotoxicity [5]: strong neurotoxicity
CC1(C)CCC(CN2CCN(c3ccc(C(=O)NS(=O)(=O)c4ccc(NCC5CCOCC5)c([N+](=O)[O-])c4)c(Oc4cnc5[nH]ccc5c4)c3)CC2)=C(c2ccc(Cl)cc2)C1 [Venetoclax, reference compound] | – | 5.5 | – | toxic side effects [6]: toxic side effects such as leukopenia and thrombocytopenia, anemia, diarrhea, dizziness, fatigue, susceptibility to infection
